The results in this text go back to paper PMC9796306, “Multiple detection of both attractants and repellents by the dCache‐chemoreceptor SO_1056 of Shewanella oneidensis” (The Febs Journal, 2022).

Test [1] concerns the target T1, MBP-LBD1056 (ligand-binding domain of MCP SO_1056) (Shewanella oneidensis, UniProt Q8EHZ8).
T1 sequence (Q8EHZ8 29-278): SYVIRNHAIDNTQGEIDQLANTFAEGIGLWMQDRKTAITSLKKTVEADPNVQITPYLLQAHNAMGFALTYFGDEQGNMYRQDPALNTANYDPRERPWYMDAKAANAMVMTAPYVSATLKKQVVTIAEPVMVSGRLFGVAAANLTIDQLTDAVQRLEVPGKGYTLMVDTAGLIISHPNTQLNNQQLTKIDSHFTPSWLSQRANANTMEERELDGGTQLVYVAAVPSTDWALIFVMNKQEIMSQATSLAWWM
The experiment in a line: isothermal titration calorimetry. Particulars: read-out: apparent KD. On the technique in general: In ITC the heat of successive injections is recorded.

In test [2] the target is MBP-LBD1056 (ligand-binding domain of MCP SO_1056) (Shewanella oneidensis, UniProt Q8EHZ8, N170D).
Chain of MBP-LBD1056 (ligand-binding domain of MCP SO_1056) (Shewanella oneidensis, UniProt Q8EHZ8, N170D) (Q8EHZ8 entry or part of it N170D): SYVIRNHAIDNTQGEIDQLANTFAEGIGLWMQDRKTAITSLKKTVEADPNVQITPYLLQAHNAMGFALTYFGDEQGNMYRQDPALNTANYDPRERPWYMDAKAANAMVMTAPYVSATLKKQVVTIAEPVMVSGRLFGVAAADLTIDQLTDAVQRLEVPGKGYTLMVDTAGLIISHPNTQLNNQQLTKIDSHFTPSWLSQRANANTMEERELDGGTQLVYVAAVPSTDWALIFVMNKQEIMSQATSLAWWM

With `O=C(O)C[C@H](O)C(=O)O` [L-malate], the Kd in test [1] was 3.4 ± 0.3 µM. For the same molecule, the “dTm at 1 mM” value in test [2] turned out to be 2.4 °C.
